In KR20110060529A, “시클로헥산 디카르복실산 유도체를 함유하는 피부 외용제 조성물” ((주)아모레퍼시픽, priority 2009, dated 2011):

Assays:
Type in all cases: in vitro ADME, guinea pig
[1] = Test Example 2: skin absorption of ascorbyl glucoside (Franz permeation cell, HPLC)
[2] = Test Example 4: skin absorption of vitamin A (retinoic acid) (Franz permeation cell, HPLC)
[3] = Test Example 3: skin absorption of arbutin (Franz permeation cell, HPLC)

CCOCCOCCOC(=O)C1CCC(C(=O)OCCOCCOCC)CC1 (stereo not drawn) [시클로헥산 디카르복실산 유도체, Bis-Ethoxydiglycol Cyclohexane 1,4-Dicarboxylate]
increase in skin absorption of ascorbyl glucoside [1]: 5~6 fold
increase in skin absorption of retinoic acid [2]: 2~3 fold
increase in skin absorption of arbutin [3]: 5~6 fold
